{
  "source": "patent US20080275073A1",
  "about": "“CRYSTALLINE FORMS AND POLYMORPHS OF N-(3-(DIMETHYLAMINO)PROPYL)-4-(4-(3-FLUORO-4-METHOXYPHENYL) PYRIMIDIN-2-YLAMINO) BENZENESULFONAMIDE AS PHARMACEUTICALLY ACCEPTABLE SALTS” (Wyeth, priority 2007, published 2008)",
  "key": {"[1]": {"assay": "solubility of free base in organic solvents / group 3 solvents", "format": "physicochemical", "details": "free base form", "description": "(§1) In an exemplary embodiment, the solubility of the free base form of compound 3 in THF, DMSO and DMF was high but the solubility in group 3 solvents, including water for example, was low. For example, acetone is needed to dissolve the free base at 50° C. […] HCl, phosphoric acid, tartaric acid, acetic acid, D-, L-glucoronic acid and succinic acid were used to prepare pharmaceutically acceptable salts of compound 3. One crystalline form of compound 3 as a mono-succinate salt and five crystalline polymorphs of compound 3 as a hemi-succinate salt are provided in the Examples."}, "[2]": {"assay": "water solubility of free base and salts of compound 3", "format": "physicochemical", "description": "as §1"}},
  "data": [
    {"compound": "COc1ccc(-c2ccnc(Nc3ccc(S(=O)(=O)NCCCN(C)C)cc3)n2)cc1F", "note": "[compound 3]", "values": [
      {"measurement": "solubility in DMF", "setting": "[1]; DMF", "result": "high"},
      {"measurement": "solubility in DMSO", "setting": "[1]; DMSO", "result": "high"},
      {"measurement": "solubility in THF", "setting": "[1]; THF", "result": "high"},
      {"measurement": "solubility in group 3 solvents, including water", "setting": "[1]; group 3 solvents, including water", "result": "low"},
      {"measurement": "Solubility in water", "setting": "[2]; free base, thermogravimeteric method", "result": "not detectable"}
    ]},
    {"compound": "COc1ccc(-c2ccnc(Nc3ccc(S(=O)(=O)NCCCN(C)C)cc3)n2)cc1F.O=C(O)CCC(=O)O", "note": "[mono-succinate, N-(3-(dimethylamino)propyl)-4-(4-(3-fluoro-4-methoxyphenyl)pyrimidin-2-ylamino)benzenesulfonamide]", "values": [
      {"measurement": "solubility", "setting": "[2]; thermodynamic from solid, in water", "result": 1100, "unit": "µg/mL"}
    ]}
  ]
}
